From US9649309B2 (priority 2014, dated 2017)
Like-named read-outs stand apart in the source and are kept apart here.

Legend:
MerTK = MerTK (Homo sapiens (Human), UniProt Q12866); conditions: read-out: IC50 MerTK
Axl [1] = target: T1, Axl (Homo sapiens (Human), UniProt P30530); conditions: read-out: IC50 Axl
Tyro3 [2] = target: T2, Tyro3 (Homo sapiens (Human), UniProt Q06418); conditions: read-out: IC50 Tyro3
Tyro3 [3] = target: T2, Tyro3; experiment: biochemical
Axl [4] = target: T1, Axl; experiment: biochemical

T2 sequence (Q06418 41-890 limits assumed): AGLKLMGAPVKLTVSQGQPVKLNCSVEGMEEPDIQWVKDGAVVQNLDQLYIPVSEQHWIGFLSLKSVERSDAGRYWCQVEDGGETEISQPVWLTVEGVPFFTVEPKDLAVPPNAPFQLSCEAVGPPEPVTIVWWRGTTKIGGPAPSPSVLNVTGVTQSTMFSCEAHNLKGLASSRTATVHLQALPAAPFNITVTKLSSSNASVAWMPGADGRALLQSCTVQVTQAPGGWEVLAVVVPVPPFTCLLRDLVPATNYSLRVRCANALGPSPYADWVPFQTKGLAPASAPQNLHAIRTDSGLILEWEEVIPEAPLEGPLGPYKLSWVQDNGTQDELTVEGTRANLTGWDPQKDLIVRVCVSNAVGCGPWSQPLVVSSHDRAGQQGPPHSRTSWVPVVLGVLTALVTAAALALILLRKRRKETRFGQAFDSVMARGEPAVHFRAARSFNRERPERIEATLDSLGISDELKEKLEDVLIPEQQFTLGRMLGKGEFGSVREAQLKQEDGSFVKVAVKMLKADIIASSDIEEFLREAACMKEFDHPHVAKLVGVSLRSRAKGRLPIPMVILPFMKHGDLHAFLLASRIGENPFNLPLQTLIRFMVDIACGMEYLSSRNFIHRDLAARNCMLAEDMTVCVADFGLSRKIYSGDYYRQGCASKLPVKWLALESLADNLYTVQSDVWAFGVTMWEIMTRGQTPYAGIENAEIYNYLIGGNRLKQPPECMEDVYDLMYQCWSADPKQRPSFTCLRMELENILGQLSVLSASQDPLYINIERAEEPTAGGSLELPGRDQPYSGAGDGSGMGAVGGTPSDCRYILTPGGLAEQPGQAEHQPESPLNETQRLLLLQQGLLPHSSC
T1 sequence (P30530 26-894 limits assumed): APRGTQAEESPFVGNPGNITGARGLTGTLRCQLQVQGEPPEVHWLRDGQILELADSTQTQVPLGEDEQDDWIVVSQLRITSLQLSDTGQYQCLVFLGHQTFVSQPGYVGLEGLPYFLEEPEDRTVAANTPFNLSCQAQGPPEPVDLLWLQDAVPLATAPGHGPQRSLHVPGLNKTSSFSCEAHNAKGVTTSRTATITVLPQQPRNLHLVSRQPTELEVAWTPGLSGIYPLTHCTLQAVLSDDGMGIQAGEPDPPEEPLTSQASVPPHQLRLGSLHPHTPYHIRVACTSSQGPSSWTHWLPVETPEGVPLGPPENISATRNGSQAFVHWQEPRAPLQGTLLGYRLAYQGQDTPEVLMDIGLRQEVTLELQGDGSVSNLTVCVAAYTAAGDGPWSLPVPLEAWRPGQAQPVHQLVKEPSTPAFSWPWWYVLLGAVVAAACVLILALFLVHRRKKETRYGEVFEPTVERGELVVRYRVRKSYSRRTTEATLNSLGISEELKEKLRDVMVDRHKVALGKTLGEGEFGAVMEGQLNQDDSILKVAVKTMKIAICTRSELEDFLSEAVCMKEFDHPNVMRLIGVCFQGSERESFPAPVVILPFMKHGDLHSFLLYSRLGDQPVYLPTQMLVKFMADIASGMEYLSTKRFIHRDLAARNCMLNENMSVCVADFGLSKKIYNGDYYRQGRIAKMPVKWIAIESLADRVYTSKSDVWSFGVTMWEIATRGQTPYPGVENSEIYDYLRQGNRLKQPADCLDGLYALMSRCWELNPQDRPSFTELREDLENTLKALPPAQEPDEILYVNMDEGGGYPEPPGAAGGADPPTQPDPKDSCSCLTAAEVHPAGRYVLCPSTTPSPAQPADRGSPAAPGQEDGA
Sequence of MerTK (Q12866 21-999 limits assumed): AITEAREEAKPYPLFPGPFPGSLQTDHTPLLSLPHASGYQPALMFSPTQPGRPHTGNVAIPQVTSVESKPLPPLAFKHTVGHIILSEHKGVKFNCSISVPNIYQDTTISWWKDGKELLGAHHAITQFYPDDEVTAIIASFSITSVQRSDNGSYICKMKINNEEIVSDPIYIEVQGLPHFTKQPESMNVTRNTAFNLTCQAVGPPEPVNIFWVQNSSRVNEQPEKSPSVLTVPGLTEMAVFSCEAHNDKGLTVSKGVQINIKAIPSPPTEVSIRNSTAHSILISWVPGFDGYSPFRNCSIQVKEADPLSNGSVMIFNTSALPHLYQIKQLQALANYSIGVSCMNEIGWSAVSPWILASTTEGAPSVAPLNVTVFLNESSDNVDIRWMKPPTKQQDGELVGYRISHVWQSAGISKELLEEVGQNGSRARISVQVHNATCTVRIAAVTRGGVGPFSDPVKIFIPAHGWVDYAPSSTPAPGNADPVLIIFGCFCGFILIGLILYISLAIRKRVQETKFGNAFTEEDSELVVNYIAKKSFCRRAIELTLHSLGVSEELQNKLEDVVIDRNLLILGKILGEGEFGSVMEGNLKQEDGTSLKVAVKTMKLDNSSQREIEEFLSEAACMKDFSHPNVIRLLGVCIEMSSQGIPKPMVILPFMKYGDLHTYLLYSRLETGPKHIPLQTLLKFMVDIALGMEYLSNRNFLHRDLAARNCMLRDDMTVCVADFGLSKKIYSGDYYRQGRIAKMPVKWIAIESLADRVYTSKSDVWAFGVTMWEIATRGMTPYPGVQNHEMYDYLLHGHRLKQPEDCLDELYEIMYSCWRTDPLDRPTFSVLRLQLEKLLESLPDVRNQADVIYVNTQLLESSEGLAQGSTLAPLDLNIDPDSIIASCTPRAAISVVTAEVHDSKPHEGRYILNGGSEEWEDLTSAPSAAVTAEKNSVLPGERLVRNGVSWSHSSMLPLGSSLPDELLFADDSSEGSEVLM

Row | IC50 (MerTK) [nM] | IC50 (Axl [1]) [nM] | IC50 (Tyro3 [2]) [nM] | Structure (SMILES) | IC50 (Tyro3 [3]) [nM] | IC50 (Axl [4]) [nM]
1 | 1.1 | 9.2 | 8.5 | CCCCNc1ncc(-c2ccc(C=C3CCN(C(C)C)CC3)cn2)c(N[C@H]2CC[C@H](O)CC2)n1 [UNC4340A] |  | 
2 |  |  |  | CCCCNc1ncc(C(=O)NCCc2ccc(F)cc2)c(N[C@H]2CC[C@H](O)CC2)n1 [UNC1850A] | 1210 | 1640
3 |  |  |  | CCCCNc1ncc(-c2cc(NC3CCCC3)ncn2)c(N[C@H]2CC[C@H](O)CC2)n1 [UNC3199A] | 847 | 1360
4 |  |  |  | CCCCNc1ncc(-c2ccc(CN3CCCC3)cn2)c(N[C@H]2CC[C@H](O)CC2)n1 [UNC2490A] | 18 | 36
5 |  |  |  | CCCCNc1ncc(-c2ccc(CCCN3CCN(C)CC3)cn2)c(N[C@H]2CC[C@H](O)CC2)n1 [UNC2792A] | 75 | 191
6 |  |  |  | CCCCNc1ncc(-c2ccc(C(=O)N(C)C3CCN(C)CC3)cn2)c(N[C@H]2CC[C@H](O)CC2)n1 [UNC2915A] | 6.5 | 49
7 |  |  |  | CCCCNc1ncc(-c2ccc(CN3CC(F)(F)C3)o2)c(N[C@H]2CC[C@H](O)CC2)n1 [UNC2900A] | 370 | 1850
8 |  |  |  | CCCCNc1ncc(C(=O)NC2CC(C)(C)N(C)C(C)(C)C2)c(N[C@H]2CC[C@H](O)CC2)n1 [UNC2695A] | 76 | 233
9 |  |  |  | CCCCNc1ncc(-c2cc(NC(C)C)ncn2)c(N[C@H]2CC[C@H](O)CC2)n1 [UNC3192A] | 77 | 86
10 |  |  |  | CCCCNc1ncc(-c2cc(NC3CC3)ncn2)c(N[C@H]2CC[C@H](O)CC2)n1 [UNC3193A] | 115 | 169
11 |  |  |  | CCCCNc1ncc(C(=O)NC2CCCCCC2)c(N[C@H]2CC[C@H](O)CC2)n1 [UNC2734A] | 505 | 665
12 |  |  |  | CCCCNc1ncc(-c2ccc(F)cn2)c(NC[C@H]2CC[C@H](N)CC2)n1 [UNC3021A] | 114 | 621
13 |  |  |  | CCCCNc1ncc(-c2cc(NC(C)(C)C)ncn2)c(N[C@H]2CC[C@H](O)CC2)n1 [UNC3200A] | 259 | 480
14 |  |  |  | CCCCNc1ncc(-c2ccc(C#CCN3CCN(C)CC3)cn2)c(N[C@H]2CC[C@H](O)CC2)n1 [UNC2793A] | 60 | 153
15 |  |  |  | CCCCNc1ncc(C(=O)NCCCN2CCOCC2)c(N[C@H]2CC[C@H](O)CC2)n1 [UNC1839A] | 1070 | 951
16 |  |  |  | CCCCNc1ncc(-c2cnccn2)c(N[C@H]2CC[C@H](O)CC2)n1 [UNC2794A] | 158 | 604
17 |  |  |  | CCCCCNc1cc(-c2cnc(NCCCC)nc2N[C@H]2CC[C@H](O)CC2)ncn1 [UNC3201A] | 195 | 112
18 |  |  |  | CCCCNc1ncc(-c2cc(NC3CCCCC3)ncn2)c(N[C@H]2CC[C@H](O)CC2)n1 [UNC3194A] | 239 | 260
19 |  |  |  | CCCCNc1ncc(C(=O)NC2CCC2)c(N[C@H]2CC[C@H](O)CC2)n1 [UNC2737A] | 443 | 491
20 |  |  |  | CCCCNc1ncc(-c2ccc(CN3CCOCC3)o2)c(N[C@H]2CC[C@H](O)CC2)n1 [UNC2898A] | 374 | 2550
21 |  |  |  | CCCCNc1ncc(-c2cc(N3CCOCC3)ncn2)c(N[C@H]2CC[C@H](O)CC2)n1 [UNC3196A] | 1000 | 2130

Row | IC50 (MerTK) [nM] | IC50 (Axl [1]) [nM] | IC50 (Tyro3 [2]) [nM] | Structure (SMILES) | IC50 (Tyro3 [3]) [nM] | IC50 (Axl [4]) [nM]
22 |  |  |  | CCCCNc1ncc(-c2ccc3ccccc3n2)c(N[C@H]2CC[C@H](O)CC2)n1 [UNC2860A] | 755 | 30000
23 |  |  |  | CCCCNc1ncc(-c2ccc(CN3CCCN(C)CC3)cn2)c(N[C@H]2CC[C@H](O)CC2)n1 [UNC2405A] | 98 | 183
24 |  |  |  | CCCCNc1ncc(C(=O)NCc2ccncc2)c(N[C@H]2CC[C@H](O)CC2)n1 [UNC1849A] | 1740 | 1260
25 | 4.4 | 74 | 66 | CCCCNc1ncc(-c2ccc(CC3CCN(C)CC3)cn2)c(N[C@H]2CC[C@H](O)CC2)n1 [UNC4337A, Trans-4-((2-(butylamino)-5-(5-((1-methylpiperidin-4-yl)methyl)pyridin-2-yl)pyrimidin-4-yl)amino)cyclohexan-1-ol] |  | 
26 |  |  |  | CCCCNc1ncc(-c2ncc(COCc3ccccc3)s2)c(N[C@H]2CC[C@H](O)CC2)n1 [UNC2863A] | 1220 | 2610
27 |  |  |  | CCCCNc1ncc(C(=O)NCCCCO)c(N[C@H]2CC[C@H](O)CC2)n1 [UNC1844A] | 1080 | 1180
28 |  |  |  | CCCCNc1ncc(C(=O)NC2CCN(C3CCN(C)CC3)CC2)c(N[C@H]2CC[C@H](O)CC2)n1 [UNC2698A] | 43 | 175
29 |  |  |  | CCCCNc1ncc(-c2ccc(CNCC3CC3)cn2)c(N[C@H]2CC[C@H](O)CC2)n1 [UNC2547A] | 11 | 30
30 |  |  |  | CCCCNc1ncc(-c2ncc(CN3CCCC3)s2)c(N[C@H]2CC[C@H](O)CC2)n1 [UNC4223A] | 14 | 29
31 |  |  |  | CCCCNc1ncc(-c2ccc(C(=O)NC3CCN(C)CC3)o2)c(N[C@H]2CC[C@H](O)CC2)n1 [UNC3181A] | 507 | 1030
32 |  |  |  | CCCCNc1ncc(-c2ccc(CCN3CCN(C)CC3)cn2)c(N[C@H]2CC[C@H](O)CC2)n1 [UNC2795A] | 82 | 211
33 |  |  |  | CCCCNc1ncc(C(=O)NCC2CCN(C)CC2)c(N[C@H]2CC[C@H](O)CC2)n1 [UNC2742A] | 247 | 534
34 |  |  |  | CCCCNc1ncc(-c2cc(N3CCCC3)ncn2)c(N[C@H]2CC[C@H](O)CC2)n1 [UNC3195A] | 230 | 188
35 |  |  |  | CCCCNc1ncc(-c2ccc(CNCc3ccncc3)cn2)c(N[C@H]2CC[C@H](O)CC2)n1 [UNC2571A] | 18 | 44
36 |  |  |  | CCCCNc1ncc(-c2cc(N3CCCCC3)ncn2)c(N[C@H]2CC[C@H](O)CC2)n1 [UNC3198A] | 3740 | 6070
37 |  |  |  | CCCCNc1ncc(-c2cccc(CN3CCN(C)CC3)n2)c(N[C@H]2CC[C@H](O)CC2)n1 [UNC2622A] | 162 | 296
38 |  |  |  | CCCCNc1ncc(C(=O)NCc2ccc(CN3CCOCC3)cc2)c(N[C@H]2CC[C@H](O)CC2)n1 [UNC2735A] | 145 | 189
39 |  |  |  | CCCCNc1ncc(C(=O)NCC2CCN(C3CCCC3)CC2)c(N[C@H]2CC[C@H](O)CC2)n1 [UNC2743A] | 84 | 166
40 |  |  |  | CCCCNc1ncc(-c2ccc(CNCc3ccccc3)cn2)c(N[C@H]2CC[C@H](O)CC2)n1 [UNC2572A] | 43 | 136
41 |  |  |  | CCCCNc1ncc(-c2cc(N3CCN(C)CC3)ncn2)c(N[C@H]2CC[C@H](O)CC2)n1 [UNC3197A] | 1170 | 1680
42 |  |  |  | CCCCNc1ncc(C(=O)Nc2ccc(CCO)cc2)c(N[C@H]2CC[C@H](O)CC2)n1 [UNC1846A] | 1070 | 1190
